Measurements: patent publication US8598190B2, “3H-imidazo [4, 5-C] pyridine-6-carboxamides as anti-inflammatory agents” (Boehringer Ingelheim International GmbH, priority 2008, dated 2013)

Molecular target: T1, recombinant human mPGES-1 (Homo sapiens, UniProt O14684)
T1 construct: made in house; host or cells: Rosetta E. coli (microsomal/membrane fraction)
T1 sequence (O14684 1-152): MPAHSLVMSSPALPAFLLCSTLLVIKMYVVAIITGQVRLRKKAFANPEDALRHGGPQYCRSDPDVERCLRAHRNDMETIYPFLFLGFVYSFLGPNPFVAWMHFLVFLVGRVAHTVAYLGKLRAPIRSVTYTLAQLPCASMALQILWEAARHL
Test: mPGES-1 inhibition test (microsomes, HTRF detection of PGE2)
Format: biochemical
Protocol: Microsomes from Rosetta E. coli bacteria expressing recombinant human mPGES-1 is dissolved in 0.1 M KPi pH 7.4 buffer containing 2.5 mM GSH. 50 μl of the enzyme is subsequently dispensed in a 384-well plate. 0.5 μl of the inhibitor dissolved in DMSO at is thereafter added to each well and incubated for 25 minutes at room temperature.
Subsequently, 2 μl of PGH2 dissolved in an appropriate solvent is added to each well and after one minute the acidified stop solution containing FeCl2 is added. 4 μl of the total volume is transferred to a separate plate and diluted 750-fold in two separate steps before HTRF detection of PGE2.
The HTRf detection is performed by the use of a commercially available kit from CisBio essentially according to the manufacturer's protocol. Briefly, 10 μl of the diluted sample is transferred to a white 384-well plate. 5 μl of d2 and 5 μl Eu3+-Cryptate labeled anti-PGE2 is added to each well containing samples by the use of a Multidrop. The plate is covered with a plastic self-adhesive film, centrifuged at 1200 rpm for 1 minute and subsequently stored at +4° C. over night.
After over night incubation the fluorescence is measured by the use of an appropriate microplate reader. The fluorescence of europium cryptate, and d2 are measured using the following excitation and emission wavelength, europium cryptate: λmax^ex=307 nm, λmax^em=620 nm and d2: λmax^ex=620 nm, λmax^em=665 nm), respectively. The extent of the specific FRET is measured as a ratio of the emission intensity at 665 nm vs. that at 620 nm. A standard curve using synthetic PGE2 is used to quantify the amount of PGE2 in unknown samples.

Row | Structure (SMILES) | inhibition at 10 µM
1 | Cn1c(Nc2c(F)cccc2Cl)nc2cc(C(=O)NC3CCC(C)(C)CC3)ncc21 [Example 389, 2-(2-Chloro-6-fluorophenylamino)-N-(4,4-dimethylcyclohexyl)-3-methyl-3H-imidazo[4,5-c]-pyridine-6-carboxamide] | 100%
2 | CC1(C)CCC(NC(=O)c2cc3nc(Nc4c(Cl)cccc4Cl)[nH]c3cn2)CC1 [Example 83, 2-(2,6-Dichloro-phenylamino)-3H-imidazo[4,5-c]pyridine-6-carboxylic acid (4,4-dimethyl-cyclohexyl)-amide] | 100%
3 | O=C(Nc1cc(C(F)(F)F)ccn1)c1cc2[nH]c(Nc3c(F)cccc3C(F)(F)F)nc2cn1 [Example 727, 2-(2-Fluoro-6-trifluoromethyl-phenylamino)-N-(4-trifluoromethyl-pyridin-2-yl)-1H-imidazo[4,5-c]pyridine-6-carboxamide] | 99%
4 | Cc1cnc(NC(=O)c2cc3[nH]c(Nc4c(Cl)cccc4Cl)nc3cn2)cc1Cl [Example 427, N-(4-Chloro-5-methyl-pyridin-2-yl)-2-(2,6-dichlorophenylamino)-1H-imidazo[4,5-c]pyridine-6-carboxamide] | 98%
5 | Cn1c(Nc2c(Cl)cncc2Cl)nc2cc(C(=O)N[C@H]3CC[C@H](C(F)(F)F)CC3)ncc21 [Example 515, 2-(3,5-Dichloropyridin-4-ylamino)-3-methyl-N-((1r,4r)-4-trifluoromethyl-cyclohexyl)-3H-imidazo[4,5-c]pyridine-6-carboxamide] | 100%
6 | Cc1cc(C)nc(NC(=O)c2cc3[nH]c(Nc4c(Cl)cccc4Cl)nc3cn2)c1 [Example 716, 2-(2,6-Dichlorophenylamino)-N-(4,6-dimethyl-pyridin-2-yl)-1H-imidazo[4,5-c]pyridine-6-carboxamide] | 100%
7 | Cn1c(Nc2c(Cl)cccc2Cl)nc2cc(C(=O)N[C@H]3CC[C@H](C(F)(F)F)CC3)ncc21 [Example 424, 2-(2,6-Dichlorophenylamino)-3-methyl-N-((1r,4r)-4-trifluoromethyl-cyclohexyl)-3H-imidazo[4,5-c]pyridine-6-carboxamide] | 100%
8 | Cn1c(Nc2c(F)cccc2Cl)nc2cc(C(=O)Nc3ccc(Br)cc3)ncc21 [Example 361, N-(4-Bromophenyl)-2-(2-chloro-6-fluoro-phenylamino)-3-methyl-3H-imidazo[4,5-c]pyridine-6-carboxamide] | 100%
9 | Cn1c(Nc2c(Cl)cccc2Cl)nc2cc(C(=O)NC3CCC(C)(C)CC3)ncc21 [Example 406, 2-(2,6-Dichlorophenylamino)-N-(4,4-dimethylcyclohexyl)-3-methyl-3H-imidazo[4,5-c]pyridine-6-carboxamide] | 100%
10 | Cn1c(Nc2c(F)cccc2Cl)nc2cc(C(=O)Nc3cc(C(F)(F)F)ccn3)ncc21 [Example 360, 2-(2-Chloro-6-fluoro-phenylamino)-3-methyl-N-(4-trifluoromethyl-pyridin-2-yl)-3-H-imidazo[4,5-c]pyridine-6-carboxamide] | 100%
11 | Cc1cc(C(F)(F)F)cc(NC(=O)c2cc3[nH]c(Nc4c(Cl)cncc4Cl)nc3cn2)n1 [Example 733, 2-(3,5-Dichloro-pyridin-4-yl-amino)-N-(6-methyl-4-trifluoromethyl-pyridin-2-yl)-1H-imidazo[4,5-c]pyridine-6-carboxamide] | 99%
12 | CN(C)c1cc(C(F)(F)F)cc(NC(=O)c2cc3[nH]c(Nc4c(Cl)cncc4Cl)nc3cn2)n1 [Example 739, 2-(3,5-Dichloro-pyridin-4-yl-amino)-N-(6-dimethylamino-4-trifluoromethyl-pyridin-2-yl)-1H-imidazo[4,5-c]pyridine-6-carboxamide] | 100%
13 | Cn1c(Nc2c(Cl)cncc2Cl)nc2cc(C(=O)NCc3ncccc3C(F)(F)F)ncc21 [Example 550, 2-(3,5-Dichloropyridin-4-ylamino)-3-methyl-N-((3-trifluoromethyl-pyridin-2-yl)-methyl)-3H-imidazo[4,5-c]pyridine-6-carboxamide] | 95%
14 | Cn1c(Nc2c(F)cccc2Cl)nc2cc(C(=O)N[C@H]3CC[C@H](C(F)(F)F)CC3)ncc21 [Example 431, 2-(2-Chloro-6-fluorophenylamino)-3-methyl-N-((1r,4r)-4-trifluoromethyl-cyclohexyl)-3H-imidazo[4,5-c]pyridine-6-carboxamide] | 100%
15 | Cn1c(Nc2c(Cl)cncc2Cl)nc2cc(C(=O)Nc3ccc(Br)cc3)ncc21 [Example 472, N-(4-Bromophenyl)-2-(3,5-dichloropyridin-4-ylamino)-3-methyl-3H-imidazo[4,5-c]-pyridine-6-carboxamide] | 96%
16 | O=C(NCc1ncccc1C(F)(F)F)c1cc2[nH]c(Nc3c(Cl)cccc3Cl)nc2cn1 [Example 509, 2-(2,6-Dichlorophenylamino)-N-((3-trifluoromethyl-pyridin-2-yl)methyl)-1H-imidazo[4,5-c]pyridine-6-carboxamide] | 97%
17 | O=C(Nc1cc(C(F)(F)F)cc(Cl)n1)c1cc2[nH]c(Nc3c(Cl)cncc3Cl)nc2cn1 [Example 736, 2-(3,5-Dichloro-pyridin-4-yl-amino)-N-(6-chloro-4-trifluoromethyl-pyridin-2-yl)-1H-imidazo[4,5-c]pyridine-6-carboxamide] | 98%
18 | Cn1c(Nc2c(F)cccc2Cl)nc2cc(C(=O)NCc3ncccc3C3CC3)ncc21 [Example 522, 2-(2-Chloro-6-fluorophenylamino)-N-((3-cyclopropylpyridin-2-yl)-methyl)-3-methyl-3H-imidazo[4,5-c]pyridine-6-carboxamide] | 100%
19 | O=C(Nc1ccc(C2CC2)cn1)c1cc2[nH]c(Nc3c(Cl)cccc3Cl)nc2cn1 [Example 725, 2-(2,6-Dichlorophenylamino)-N-(5-cyclopropyl-pyridin-2-yl)-1H-imidazo[4,5-c]pyridine-6-carboxamide] | 100%
20 | O=C(NCC(F)(F)C(F)(F)C(F)(F)C(F)(F)C(F)(F)C(F)(F)C(F)(F)F)c1cc2[nH]c(Nc3c(Cl)cccc3Cl)nc2cn1 [Example 721, 2-(2,6-Dichlorophenylamino)-N-(2,2,3,3,4,4,5,5,6,6,7,7,8,8,8-pentadecafluoro-octyl)-1H-imidazo[4,5-c]pyridine-6-carboxamide] | 100%
21 | Cn1c(Nc2c(F)cccc2Cl)nc2cc(C(=O)NC3CCC4(CC3)CC4)ncc21 [Example 417, 2-(2-Chloro-6-fluoro-phenylamino)-3-methyl-N-(spiro[2.5]octan-6-yl)-3H-imidazo[4,5-c]pyridine-6-carboxamide] | 100%
22 | O=C(Nc1cc(C(F)(F)F)ccn1)c1cc2[nH]c(Nc3c(Cl)cccc3Cl)nc2cn1 [Example 414, 2-(2,6-Dichlorophenylamino)-N-(4-trifluoromethyl-pyridin-2-yl)-1H-imidazo[4,5-c]pyridine-6-carboxamide] | 100%
